Measurements published in patent publication US11053204B2, “Pyrimidinyloxy benzene derivatives as herbicides” (FMC Corporation, priority 2015, dated 2021).

Assays:
Type in all cases: in vivo
[1] = tested on: lambsquarters (Chenopodium album); assay: Test C postemergence, plant response rating; conditions: for Lambsquarters plant response rating: scale 0 to 100 (0 no effect, 100 complete control)
Outline: (§1)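 Both timings shared one formulation, a non-phytotoxic solvent mixture with surfactant, and a greenhouse period of 13 to 15 d. Preemergence used seeded loam/sand or silt loam soil, postemergence used 2 to 18 cm plants; visual ratings ran from 0 (no effect) to 100 (complete control).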

[2] = tested on: velvetleaf (Abutilon theophrasti); assay: Test C postemergence, plant response rating
Outline: as §1

[3] = tested on: galium (catchweed bedstraw, Galium aparine); assay: Test C postemergence, plant response rating; conditions: for Galium plant response rating: scale 0 to 100 (0 no effect, 100 complete control)
Outline: as §1

[4] = tested on: foxtail, giant (giant foxtail, Setaria faberii); assay: Test C postemergence, plant response rating; conditions: for Foxtail, Giant plant response rating: scale 0 to 100 (0 no effect, 100 complete control)
Outline: as §1

[5] = tested on: morningglory (Ipomoea coccinea); assay: Test C postemergence, plant response rating; conditions: for Morningglory plant response rating: scale 0 to 100 (0 no effect, 100 complete control)
Outline: as §1

[6] = tested on: nutsedge, yellow (yellow nutsedge, Cyperus esculentus); assay: Test C postemergence, plant response rating; conditions: for Nutsedge, Yellow plant response rating: scale 0 to 100 (0 no effect, 100 complete control)
Outline: as §1

[7] = tested on: waterhemp (common waterhemp, Amaranthus rudis); assay: Test C postemergence, plant response rating
Outline: as §1

soybean (Glycine max) = assay: Test C postemergence, plant response rating; conditions: for Soybean plant response rating: scale 0 to 100 (0 no effect, 100 complete control)
Outline: as §1

[8] = tested on: ragweed (common ragweed, Ambrosia elatior); assay: Test C postemergence, plant response rating; conditions: for Ragweed plant response rating: scale 0 to 100 (0 no effect, 100 complete control)
Outline: as §1

[9] = tested on: chickweed (common chickweed, Stellaria media); assay: Test C postemergence, plant response rating; conditions: for Chickweed plant response rating: scale 0 to 100 (0 no effect, 100 complete control)
Outline: as §1

kochia (Kochia scoparia) = assay: Test C postemergence, plant response rating; conditions: for Kochia plant response rating: scale 0 to 100 (0 no effect, 100 complete control)
Outline: as §1

[10] = tested on: wheat (winter wheat, Triticum aestivum); assay: Test C postemergence, plant response rating
Outline: as §1

[11] = tested on: oilseed rape (Brassica napus); assay: Test C postemergence, plant response rating; conditions: for Oilseed Rape plant response rating: scale 0 to 100 (0 no effect, 100 complete control)
Outline: as §1

[12] = tested on: blackgrass (Alopecurus myosuroides); assay: Test C postemergence, plant response rating; conditions: for Plant response rating, Blackgrass: scale 0 to 100; for Blackgrass plant response rating: scale 0 to 100 (0 no effect, 100 complete control)
Outline: as §1

corn (Zea mays) = assay: Test C postemergence, plant response rating; conditions: for Corn plant response rating: scale 0 to 100 (0 no effect, 100 complete control)
Outline: as §1

[13] = tested on: oat, wild (wild oat Avena fatua); assay: Test C postemergence, plant response rating; conditions: for Oat, Wild plant response rating: scale 0 to 100 (0 no effect, 100 complete control)
Outline: as §1

[14] = tested on: pigweed, palmer (palmer pigweed, Amaranthus palmeri); assay: Test C preemergence, plant response rating
[15] = tested on: oat, wild (wild oat Avena fatua); assay: Test C preemergence, plant response rating
[16] = tested on: surinam grass (Brachiaria decumbens); assay: Test C preemergence, plant response rating
[17] = tested on: wild poinsettia (Euphorbia heterophylla); assay: Test C preemergence, plant response rating
[18] = tested on: windgrass (Apera spica-venti); assay: Test C preemergence, plant response rating
[19] = 125 g ai/ha, scale 0 to 100 (0 no effect, 100 complete control)

O=C(CCCC(F)(F)F)c1c(Cl)cccc1Oc1ncc(Cl)cn1 [Compound 143]
Plant response rating, Lambsquarters ([1]; 16 g ai/ha, scale of 0 to 100): 75 | Plant response rating, Lambsquarters ([1]; 31 g ai/ha, scale 0 to 100): 90 | Lambsquarters plant response rating ([1]; 62 g ai/ha): 90 | Lambsquarters plant response rating ([1]; 125 g ai/ha): 95 | Plant response rating, Velvetleaf ([2]; 16 g ai/ha, scale of 0 to 100): 35 | Plant response rating, Velvetleaf ([2]; 31 g ai/ha, scale 0 to 100): 55 | Velvetleaf plant response rating [2, 19]: 70 | Plant response rating, Galium ([3]; 16 g ai/ha, scale of 0 to 100): 75 | Plant response rating, Galium ([3]; 31 g ai/ha, scale 0 to 100): 85 | Galium plant response rating ([3]; 62 g ai/ha): 80 | Galium plant response rating ([3]; 125 g ai/ha): 95 | Plant response rating, Foxtail, Giant ([4]; 16 g ai/ha, scale of 0 to 100): 20 | Plant response rating, Foxtail, Giant ([4]; 31 g ai/ha, scale 0 to 100): 10 | Foxtail, Giant plant response rating ([4]; 62 g ai/ha): 10 | Foxtail, Giant plant response rating ([4]; 125 g ai/ha): 25 | Plant response rating, Morningglory ([5]; 16 g ai/ha, scale of 0 to 100): 15 | Plant response rating, Morningglory ([5]; 31 g ai/ha, scale 0 to 100): 70 | Morningglory plant response rating ([5]; 62 g ai/ha): 50 | Morningglory plant response rating ([5]; 125 g ai/ha): 65 | Plant response rating, Nutsedge, Yellow ([6]; 16 g ai/ha, scale of 0 to 100): 0 | Plant response rating, Nutsedge, Yellow ([6]; 31 g ai/ha, scale 0 to 100): 5 | Nutsedge, Yellow plant response rating ([6]; 62 g ai/ha): 5 | Nutsedge, Yellow plant response rating ([6]; 125 g ai/ha): 25 | Plant response rating, Waterhemp ([7]; 16 g ai/ha, scale of 0 to 100): 75 | Plant response rating, Waterhemp ([7]; 31 g ai/ha, scale 0 to 100): 80 | Waterhemp plant response rating [7, 19]: 90 | Plant response rating, Soybean (soybean (Glycine max); 16 g ai/ha, scale of 0 to 100): 30 | Plant response rating, Soybean (soybean (Glycine max); 31 g ai/ha, scale 0 to 100): 40 | Soybean plant response rating (soybean (Glycine max); 62 g ai/ha): 55 | Soybean plant response rating (soybean (Glycine max); 125 g ai/ha): 65 | Plant response rating, Ragweed ([8]; 16 g ai/ha, scale of 0 to 100): 20 | Plant response rating, Ragweed ([8]; 31 g ai/ha, scale 0 to 100): 50 | Ragweed plant response rating ([8]; 62 g ai/ha): 55 | Ragweed plant response rating ([8]; 125 g ai/ha): 55 | Plant response rating, Chickweed ([9]; 16 g ai/ha, scale of 0 to 100): 80 | Plant response rating, Chickweed ([9]; 31 g ai/ha, scale 0 to 100): 80 | Chickweed plant response rating ([9]; 62 g ai/ha): 85 | Chickweed plant response rating ([9]; 125 g ai/ha): 100 | Plant response rating, Kochia (kochia (Kochia scoparia); 16 g ai/ha, scale of 0 to 100): 98 | Plant response rating, Kochia (kochia (Kochia scoparia); 31 g ai/ha, scale 0 to 100): 100 | Kochia plant response rating (kochia (Kochia scoparia); 62 g ai/ha): 100 | Kochia plant response rating (kochia (Kochia scoparia); 125 g ai/ha): 100 | Plant response rating, Wheat ([10]; 16 g ai/ha, scale of 0 to 100): 5 | Plant response rating, Wheat ([10]; 31 g ai/ha, scale 0 to 100): 10 | Wheat plant response rating [10, 19]: 30 | Plant response rating, Oilseed Rape ([11]; 16 g ai/ha, scale of 0 to 100): 85 | Plant response rating, Oilseed Rape ([11]; 31 g ai/ha, scale 0 to 100): 80 | Oilseed Rape plant response rating ([11]; 62 g ai/ha): 95 | Oilseed Rape plant response rating ([11]; 125 g ai/ha): 100 | Plant response rating, Blackgrass ([12]; 16 g ai/ha): 10 | Plant response rating, Blackgrass ([12]; 31 g ai/ha): 15 | Blackgrass plant response rating ([12]; 62 g ai/ha): 15 | Blackgrass plant response rating ([12]; 125 g ai/ha): 40 | Plant response rating, Corn (corn (Zea mays); 16 g ai/ha, scale of 0 to 100): 15 | Plant response rating, Corn (corn (Zea mays); 31 g ai/ha, scale 0 to 100): 20 | Corn plant response rating (corn (Zea mays); 62 g ai/ha): 20 | Corn plant response rating (corn (Zea mays); 125 g ai/ha): 30 | Plant response rating, Oat, Wild ([13]; 16 g ai/ha, scale of 0 to 100): 10 | Plant response rating, Oat, Wild ([13]; 31 g ai/ha, scale 0 to 100): 10 | Oat, Wild plant response rating ([13]; 62 g ai/ha): 10 | Oat, Wild plant response rating ([13]; 125 g ai/ha): 20 | Plant response rating, Pigweed, Palmer ([14]; 31 g ai/ha, scale 0 to 100): 100 | Plant response rating, Pigweed, Palmer ([14]; 62 g ai/ha, scale 0 to 100): 100 | Plant response rating, Pigweed, Palmer ([14]; 125 g ai/ha, scale of 0 to 100): 100 | Plant response rating, Oat, Wild ([15]; 31 g ai/ha, scale 0 to 100): 0 | Plant response rating, Oat, Wild ([15]; 62 g ai/ha, scale 0 to 100): 5 | Plant response rating, Oat, Wild ([15]; 125 g ai/ha, scale of 0 to 100): 5 | Plant response rating, Surinam Grass ([16]; 31 g ai/ha, scale 0 to 100): 10 | Plant response rating, Surinam Grass ([16]; 62 g ai/ha, scale 0 to 100): 35 | Plant response rating, Surinam Grass ([16]; 125 g ai/ha, scale of 0 to 100): 50 | Plant response rating, Poinsettia, Wild ([17]; 31 g ai/ha, scale 0 to 100): 5 | Plant response rating, Poinsettia, Wild ([17]; 62 g ai/ha, scale 0 to 100): 20 | Plant response rating, Poinsettia, Wild ([17]; 125 g ai/ha, scale of 0 to 100): 25 | Plant response rating, Windgrass ([18]; 31 g ai/ha, scale 0 to 100): 85 | Plant response rating, Windgrass ([18]; 62 g ai/ha, scale 0 to 100): 100 | Plant response rating, Windgrass ([18]; 125 g ai/ha, scale of 0 to 100): 100
